In patent US10493060B2, “Spirocyclic compounds” (ZENO ROYALTIES & MILESTONES, LLC, priority 2015, dated 2019) one finds IC50 data, which are given here for 15 compounds.

A word on the IC50: it is the concentration that gives 50% inhibition.

In one test the target is Activated ERK1 (Homo sapiens (Human), UniProt P27361). Put plainly: Active ERK1 kinase assay (Mobility Shift Assay). Type of test: biochemical. How it is done: (§1) Activated ERK1 and ERK2 activity was determined in a Mobility Shift Assay (MSA) format as follows: Compound and kinase solution were prepared with assay buffer (20 mM HEPES, 0.01% Triton X-100, 2 mM DTT, pH7.5) and mixed and incubated in for 30 mins at rt. ERK1 & ERK2 were then activated by the addition of Fl-Substrate, ATP and metal solution and incubated for 1 h at rt. After 1 h, the reaction was terminated by the addition of […] of Termination Buffer (QuickScout Screening Assist MSA; Carna Biosciences) to the well. The reaction mixture was applied to LabChip™ system (PerkinElmer), and the product and substrate peptide peaks were separated, analyzed and quantitated. The kinase reaction is evaluated by the product ratio calculated from peak heights of product (P) and substrate (S) peptides (P/(P+S)).

The next test has as its target Activated ERK2 (Homo sapiens (Human), UniProt P28482). The test is described as follows: Active ERK2 kinase assay (Mobility Shift Assay). Type of test: biochemical. How it is done:
as §1

For the next test, the system named is A375 (melanoma) cells. Put plainly: Proliferation assay (CellTiter-Glo), A375. Type of test: cell-based. The note with it: Homo sapiens, A-375, 72 h, 3 days. How it is done:
A375 (melanoma), Colo-205 (colon cancer), Miapaca (pancreatic), HPAFII (pancreatic), sNF02.0 (neurofibromatosis type 1), sNF96.2 (neurofibromatosis type 1) and 8505 (Thyroid) cells were grown and maintained in RPMI-1640 medium containing 100 U/mL penicillin-streptomycin and 10% fetal bovine serum. Cells were in growth medium in 96-well opaque-walled clear bottom plates and incubated the in the CO2 incubator overnight before treatment. Cells were treated with compounds diluted in DMSO and a 10 point 3-fold serial dilutions were done. Plates were placed in 37° C., 5% CO2 for to incubate for 3 days. Before they were developed by adding 100 μL of CellTiter-Glo reagent (Promega) to the assay plate, plates were shaken briefly for 2 mins and allowed to incubate at rt for 10 mins. The bottom of the plates was pasted with white back seal and luminescence was recorded with Flexstation3 with setting of luminescence, integration time 500 ms.

A value given as a limit tells only on which side of the number the result lay.

Activated ERK1, sequence (P27361 whole entry): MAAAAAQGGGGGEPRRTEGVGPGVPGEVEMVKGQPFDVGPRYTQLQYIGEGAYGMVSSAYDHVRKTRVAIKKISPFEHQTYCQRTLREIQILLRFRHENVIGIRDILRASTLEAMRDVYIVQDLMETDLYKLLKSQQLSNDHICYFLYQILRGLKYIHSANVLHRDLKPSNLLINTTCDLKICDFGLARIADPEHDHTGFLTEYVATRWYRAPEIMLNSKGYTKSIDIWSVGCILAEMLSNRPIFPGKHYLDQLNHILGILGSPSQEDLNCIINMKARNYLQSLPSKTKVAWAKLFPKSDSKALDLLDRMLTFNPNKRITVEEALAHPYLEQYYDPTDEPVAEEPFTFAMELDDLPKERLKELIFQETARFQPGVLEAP
Activated ERK2, sequence (P28482 whole entry): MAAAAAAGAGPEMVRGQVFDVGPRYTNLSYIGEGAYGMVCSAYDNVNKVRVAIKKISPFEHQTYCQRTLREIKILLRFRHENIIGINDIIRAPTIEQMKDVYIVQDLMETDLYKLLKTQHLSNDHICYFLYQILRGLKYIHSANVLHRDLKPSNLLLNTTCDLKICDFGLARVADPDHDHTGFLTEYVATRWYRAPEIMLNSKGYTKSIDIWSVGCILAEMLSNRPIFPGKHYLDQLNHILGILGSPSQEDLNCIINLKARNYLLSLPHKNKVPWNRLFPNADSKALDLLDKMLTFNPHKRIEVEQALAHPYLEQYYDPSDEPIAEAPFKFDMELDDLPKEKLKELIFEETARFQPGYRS

Regarding `Cc1cc(-c2n[nH]c3ccc(N4CCC5(CCN(CC(=O)N6CC=C(c7ccc(-c8ncn(C)n8)cc7)CC6)C5)C4=O)cc23)ccn1` (stereo not drawn) [Example 6, 7-(2-(4-(4-(1-Methyl-1H-1,2,4-triazol-3-yl)phenyl)-3,6-dihydropyridin-1(2H)-yl)-2-oxoethyl)-2-(3-(2-methylpyridin-4-yl)-1H-indazol-5-yl)-2,7-diazaspiro[4.4]nonan-1-one], the IC50 at Activated ERK1 and at Activated ERK2 was not above 50 nM throughout.
As to `Cc1cc(-c2n[nH]c3ccc(N4CC[C@@]5(CCN(CC(=O)N6CC=C(c7ccc(-c8ncn(C)n8)cc7)CC6)C5)C4=O)cc23)ccn1` [Example 9, (R)-7-(2-(4-(4-(1-Methyl-1H-1,2,4-triazol-3-yl)phenyl)-3,6-dihydropyridin-1(2H)-yl)-2-oxoethyl)-2-(3-(2-methylpyridin-4-yl)-1H-indazol-5-yl)-2,7-diazaspiro[4.4]nonan-1-one], the IC50 on Activated ERK1 was 50 to 250 nM; at Activated ERK2 it was not above 50 nM.
Turning to `CC(C)Oc1ccc(-c2n[nH]c3ccc(N4CC[C@@]5(CCN(CC(=O)N6CC=C(c7ccc(-c8ncn(C)n8)cc7)CC6)C5)C4=O)cc23)cn1` [Example 11, (R)-2-(3-(6-Isopropoxypyridin-3-yl)-1H-indazol-5-yl)-7-(2-(4-(4-(1-methyl-1H-1,2,4-triazol-3-yl)phenyl)-3,6-dihydropyridin-1 (2H)-yl)-2-oxoethyl)-2,7-diazaspiro[4.4]nonan-1-one], the IC50 at Activated ERK1 and at Activated ERK2 was not below 250 nM each time.
Regarding `CC(C)Oc1ccc(-c2n[nH]c3ccc(N4CCC5(CN(CC(=O)N6CC=C(c7ccc(-c8ncn(C)n8)cc7)CC6)C5)C4=O)cc23)cn1` [Example 13, 6-(3-(6-Isopropoxypyridin-3-yl)-1H-indazol-5-yl)-2-(2-(4-(4-(1-methyl-1H-1,2,4-triazol-3-yl)phenyl)-3,6-dihydropyridin-1(2H)-yl)-2-oxoethyl)-2,6-diazaspiro[3.4]octan-5-one], the IC50 at Activated ERK1 and at Activated ERK2 was 50 to 250 nM in each case.
Consider `CC(C)Oc1ccc(-c2n[nH]c3ccc(N4CC[C@]5(CCN(CC(=O)N6CC=C(c7ccc(-n8ccnn8)cc7)CC6)C5)C4=O)cc23)cn1` [Example 14, (S)-7-(2-(4-(4-(1H-1,2,3-Triazol-1-yl)phenyl)-3,6-dihydropyridin-1(2H)-yl)-2-oxoethyl)-2-(3-(6-isopropoxypyridin-3-yl)-1H-indazol-5-yl)-2,7-diazaspiro[4.4]nonan-1-one], for which the half-inhibitory concentration (IC50) at Activated ERK1 and at Activated ERK2 was not above 50 nM in each case.
Turning to `CC(C)Oc1ccc(-c2n[nH]c3ccc(N4CC[C@]5(CCN(CC(=O)N6CCC(c7ccc(-c8ncn(C)n8)cc7)CC6)C5)C4=O)cc23)cn1` [Example 16, (S)-2-(3-(6-Isopropoxypyridin-3-yl)-1H-indazol-5-yl)-7-(2-(4-(4-(1-methyl-1H-1,2,4-triazol-3-yl)phenyl)piperidin-1-yl)-2-oxoethyl)-2,7-diazaspiro[4.4]nonan-1-one], the IC50 at Activated ERK1 and at Activated ERK2 was not above 50 nM throughout.
`CCNc1nnc(-c2ccc(C3=CCN(C(=O)CN4CC[C@]5(CCN(c6ccc7[nH]nc(-c8ccc(OC(C)C)nc8)c7c6)C5=O)C4)CC3)cc2)s1` [Example 19, (S)-7-(2-(4-(4-(5-(Ethylamino)-1,3,4-thiadiazol-2-yl)phenyl)-3,6-dihydropyridin-1(2H)-yl)-2-oxoethyl)-2-(3-(6-isopropoxypyridin-3-yl)-1H-indazol-5-yl)-2,7-diazaspiro[4.4]nonan-1-one]: the IC50 at Activated ERK1 and at Activated ERK2 was not above 50 nM in each case.
For `CC(C)Oc1ccc(-c2n[nH]c3ccc(N4CCC5(CCN(Cc6ccccc6)C5)C4=O)cc23)cn1` (stereo not drawn) [Example 21, 7-Benzyl-2-(3-(6-isopropoxypyridin-3-yl)-1H-indazol-5-yl)-2,7-diazaspiro[4.4]nonan-1-one], the IC50 at Activated ERK1 and on Activated ERK2 was not below 250 nM each time.
Regarding `CC(C)Oc1ccc(-c2n[nH]c3ccc(N4CC[C@]5(CCN(CC(=O)N6CC=C(c7ccc(-c8cn(C)cn8)cc7)CC6)C5)C4=O)cc23)cn1` [Example 26, (S)-2-(3-(6-Isopropoxypyridin-3-yl)-1H-indazol-5-yl)-7-(2-(4-(4-(1-methyl-1H-imidazol-4-yl)phenyl)-3,6-dihydropyridin-1(2H)-yl)-2-oxoethyl)-2,7-diazaspiro[4.4]nonan-1-one], the IC50 on Activated ERK2 was not above 50 nM; in the test with A375 (melanoma) cells, not above 500 nM.
For the compound `CC(C)Oc1ccc(-c2n[nH]c3ccc(N4CC[C@]5(CCN(CC(=O)N6CCN(c7ccc(-c8ncn(C)n8)cc7)CC6)C5)C4=O)cc23)cn1` [Example 32, (S)-2-(3-(6-Isopropoxypyridin-3-yl)-1H-indazol-5-yl)-7-(2-(4-(4-(1-methyl-1H-1,2,4-triazol-3-yl)phenyl)piperazin-1-yl)-2-oxoethyl)-2,7-diazaspiro[4.4]nonan-1-one], the IC50 is not above 50 nM on Activated ERK2 and not above 500 nM in the test with A375 (melanoma) cells.
For `Cn1cnc(-c2ccc(C3=CCN(C(=O)CN4CC[C@]5(CCN(c6ccc7[nH]nc(N8CCOCC8)c7c6)C5=O)C4)CC3)cc2)n1` [Example 33, (S)-7-(2-(4-(4-(1-Methyl-1H-1,2,4-triazol-3-yl)phenyl)-3,6-dihydropyridin-1 (2H)-yl)-2-oxoethyl)-2-(3-morpholino-1H-indazol-5-yl)-2,7-diazaspiro[4.4]nonan-1-one] the same measures were not above 50 nM and not above 500 nM.
Consider `Cn1cnc(-c2ccc(C3=CCN(C(=O)CN4CC[C@]5(CCN(c6ccc7[nH]nc(-c8cnccc8C(F)(F)F)c7c6)C5=O)C4)CC3)cc2)n1` [Example 34, (S)-7-(2-(4-(4-(1-Methyl-1H-1,2,4-triazol-3-yl)phenyl)-3,6-dihydropyridin-1(2H)-yl)-2-oxoethyl)-2-(3-(4-(trifluoromethyl)pyridin-3-yl)-1H-indazol-5-yl)-2,7-diazaspiro[4.4]nonan-1-one], for which the values for the IC50 at Activated ERK2 and with A375 (melanoma) cells were not below 250 nM and not below 1000 nM, respectively.
Turning to `Cn1cnc(-c2ccc(C3=CCN(C(=O)CN4CC[C@]5(CCN(c6ccc7[nH]ncc7c6)C5=O)C4)CC3)cc2)n1` [Example 36, (S)-2-(1H-indazol-5-yl)-7-(2-(4-(4-(1-methyl-1H-1,2,4-triazol-3-yl)phenyl)-3,6-dihydropyridin-1(2H)-yl)-2-oxoethyl)-2,7-diazaspiro[4.4]nonan-1-one], the IC50 on Activated ERK2 was 50 to 250 nM; in the test with A375 (melanoma) cells, not below 1000 nM.
For `Cn1cnc(-c2ccc(C3=CCN(C(=O)CN4CC[C@]5(CCN(c6ccc7[nH]nc(-c8ccnc(C(C)(F)F)c8)c7c6)C5=O)C4)CC3)cc2)n1` [Example 39, (S)-2-(3-(2-(1,1-difluoroethyl)pyridin-4-yl)-1H-indazol-5-yl)-7-(2-(4-(4-(1-methyl-1H-1,2,4-triazol-3-yl)phenyl)-3,6-dihydropyridin-1(2H)-yl)-2-oxoethyl)-2,7-diazaspiro[4.4]nonan-1-one] the same measures were not above 50 nM and not above 500 nM.
For the compound `Cn1cnc(-c2ccc(C3=CCN(C(=O)CN4CC[C@]5(CCN(c6ccc7[nH]nc(-c8ccnc(C(F)F)c8)c7c6)C5=O)C4)CC3)cc2)n1` [Example 40, (S)-2-(3-(2-(Difluoromethyl)pyridin-4-yl)-1H-indazol-5-yl)-7-(2-(4-(4-(1-methyl-1H-1,2,4-triazol-3-yl)phenyl)-3,6-dihydropyridin-1(2H)-yl)-2-oxoethyl)-2,7-diazaspiro[4.4]nonan-1-one], the IC50 on Activated ERK2 is not above 50 nM; in the test with A375 (melanoma) cells, not above 500 nM.
